{
  "source": "patent US8802664B2",
  "about": "(Bioproject, priority 2010, dated 2014)",
  "note": "Structures can show the parent of a compound that is named as a salt.",
  "data": [
    {"units": {"melting point": "°C"}, "values": [
      {"smiles": "CN1CCC(OC(c2cccc(-c3ccccc3Cl)c2)c2nc3ccccc3[nH]2)CC1", "note": "(stereo not shown) (as salt: oxalate) [Example 121, 2-[(2′-Chlorobiphenyl-3-yl)(1-methylpiperidin-4-yloxy)methyl]-1H-benzimidazole]", "melting point": 130},
      {"smiles": "CN1CCC(OC(c2cccc(OCCCCCNCCCCN)c2)c2nc3ccccc3[nH]2)CC1", "note": "(stereo not shown) (as salt: oxalate) [Example 419, N1-(5-{3-[(1H-benzimidazol-2-yl)(1-methylpiperidin-4-yloxy)methyl]phenoxy}pentyl)butane-1,4-diamine]", "melting point": 162},
      {"smiles": "Cc1cccc(C(NC2CCN(C)CC2)c2nc3ccccc3s2)c1", "note": "(stereo not shown) (as salt: oxalate) [Example 21, [(benzothiazol-2-yl)(m-tolyl)methyl](1-methylpiperidin-4-yl)amine]", "melting point": 127},
      {"smiles": "Cc1cc(C(NC2CCN(C)CC2)c2nc3ccccc3s2)ccc1F", "note": "(stereo not shown) (as salt: oxalate) [Example 35, [benzothiazol-2-yl(4-fluoro-3-methyl-phenyl)methyl](1-methylpiperidin-4-yl)amine]", "melting point": 160},
      {"smiles": "CN1CCC(OC(c2cccc(OCC3CCCN(C)C3)c2)c2nc3ccccc3s2)CC1", "note": "(stereo not shown) (as salt: oxalate) [Example 379, 2-[[3-(1-methylpiperidin-3-ylmethoxy)phenyl](1-methylpiperidin-4-yloxy)methyl]benzothiazole]", "melting point": 76},
      {"smiles": "CN1CCC(OC(c2nc3ccccc3[nH]2)c2cc(C#CCCCCN)ccc2F)CC1", "note": "(stereo not shown) (as salt: oxalate) [Example 557, 6-{3-[(1H-benzimidazol-2-yl)(1-methylpiperidin-4-yloxy)methyl]-4-fluorophenyl}hex-5-ynylamine]", "melting point": 195},
      {"smiles": "CN1CCC(OC(c2cccc(N3CCC(F)C3)c2)c2nc3ccccc3s2)CC1", "note": "(stereo not shown) (as salt: oxalate) [Example 454]", "melting point": 103},
      {"smiles": "CN1CCC(OC(c2ccc(Cl)cc2)c2nc3ccccc3s2)CC1", "note": "(stereo not shown) (as salt: oxalate) [Example 4, 2-[(4-chlorophenyl)(1-methylpiperidin-4-yloxy)methyl]benzothiazole]", "melting point": "147 to 148"},
      {"smiles": "CN1CCC(COC(c2cccc(Br)c2)c2nc3ccccc3s2)C1", "note": "(single isomer, unassigned) (as salt: oxalate) [Example 464]", "melting point": 68},
      {"smiles": "CN1CCC(NC(c2cccc(OCCC3=CCC4CC3C4(C)C)c2)c2nc3ccccc3[nH]2)CC1", "note": "(stereo not shown) (as salt: oxalate) [Example 181, ((1H-benzimidazol-2-yl)-{3-[2-(6,6-dimethyl-bicyclo[3.1.1]hept-2-en-2-yl)ethoxy]phenyl}methyl)(1-methylpiperidin-4-yl)amine]", "melting point": 123},
      {"smiles": "CCOC(=O)c1cccc(C(OC2CCN(C)CC2)c2nc3ccccc3s2)c1", "note": "(stereo not shown) (as salt: oxalate) [Example 206, 3-[benzothiazol-2-yl(1-methylpiperidin-4-yloxy)methyl]benzoic acid ethyl ester]", "melting point": 104},
      {"smiles": "CN1CCC(OC(c2cccc(OCCO)c2)c2nc3ccccc3s2)CC1", "note": "(stereo not shown) (as salt: oxalate) [Example 244, 2-{3-[benzothiazol-2-yl(1-methylpiperidin-4-yloxy)methyl]phenoxy}ethanol]", "melting point": 45},
      {"smiles": "CN1CCC(OC(c2cccc(OCCNCC(=O)OC(C)(C)C)c2)c2nc3ccccc3s2)CC1", "note": "(stereo not shown) (as salt: oxalate) [Example 370, (2-{3-[benzothiazol-2-yl(1-methylpiperidin-4-yloxy)methyl]phenoxy}ethylamino)acetic acid tert-butyl ester]", "melting point": 136},
      {"smiles": "CN1CCC(OC(c2ccc3ccsc3c2)c2nc3ccccc3[nH]2)CC1", "note": "(stereo not shown) (as salt: oxalate) [Example 556, 2-[benzo[b]thiophen-6-yl(1-methylpiperidin-4-yloxy)methyl]-1H-benzimidazole]", "melting point": 160},
      {"smiles": "CN1CCC(OC(c2cccc(OCC3CCCCC3)c2)c2nc3ccccc3s2)CC1", "note": "(stereo not shown) (as salt: oxalate) [Example 285, 2-[(3-Cyclohexylmethoxyphenyl)(1-methylpiperidin-4-yloxy)methyl]benzothiazole]", "melting point": 101},
      {"smiles": "CN1CCC(OC(c2cccc(OC(F)(F)F)c2)c2nc3ccccc3[nH]2)CC1", "note": "(stereo not shown) (as salt: oxalate) [Example 280, 2-[(1-methylpiperidin-4-yloxy)(3-trifluoromethoxy-phenyl)methyl]-1H-benzimidazole]", "melting point": 172},
      {"smiles": "CN1CCC(OC(c2nc3ccccc3[nH]2)c2cc(OC(F)(F)F)ccc2Cl)CC1", "note": "(stereo not shown) (as salt: oxalate) [Example 524]", "melting point": 107},
      {"smiles": "CN1CCC(OC(c2cccc(N3CC(O)C3)c2)c2nc3ccccc3s2)CC1", "note": "(stereo not shown) (as salt: oxalate) [Example 403, 1-{3-[benzothiazol-2-yl(1-methylpiperidin-4-yloxy)methyl]phenyl}azetidin-3-ol]", "melting point": 117},
      {"smiles": "CC(=O)c1cccc(-c2cccc(C(OC3CCN(C)CC3)c3nc4ccccc4[nH]3)c2)c1", "note": "(stereo not shown) (as salt: oxalate) [Example 110, 1-{3′-[(1H-benzimidazol-2-yl)(1-methylpiperidin-4-yloxy)methyl]biphenyl-3-yl}ethanone]", "melting point": 140},
      {"smiles": "CN1CCC(OC(c2ccc3occc3c2)c2nc3ccccc3s2)CC1", "note": "(stereo not shown) (as salt: oxalate) [Example 46, 2-[benzofuran-5-yl(1-methylpiperidin-4-yloxy)methyl]benzothiazole]", "melting point": 153},
      {"smiles": "CN1CCC(OC(c2cccc(-n3cccn3)c2)c2nc3ccccc3s2)CC1", "note": "(stereo not shown) (as salt: oxalate) [Example 147, 2-[(1-methylpiperidin-4-yloxy)(3-pyrazol-1-ylphenyl)methyl]benzothiazole]", "melting point": 89},
      {"smiles": "CN1CCC(OC(c2ccc3c(c2)OCCO3)c2nc3ccccc3s2)CC1", "note": "(stereo not shown) (as salt: hydrochloride) [Example 10, 2-[(2,3-dihydrobenzo[1,4]dioxin-6-yl)(1-methylpiperidin-4-yloxy)methyl]benzothiazole]", "melting point": 71},
      {"smiles": "CN1CCC(OC(c2cccc(OCC=CCO)c2)c2nc3ccccc3s2)CC1", "note": "(stereo not shown) (as salt: oxalate) [Example 422, 4-{3-[benzothiazol-2-yl(1-methylpiperidin-4-yloxy)methyl]phenoxy}but-2-en-1-ol]", "melting point": 73},
      {"smiles": "CN1CCC(OC(c2cccc(OCc3ccco3)c2)c2nc3ccccc3s2)CC1", "note": "(stereo not shown) (as salt: oxalate) [Example 267, 2-[[3-(furan-2-ylmethoxy)phenyl](1-methylpiperidin-4-yloxy)methyl]benzothiazole]", "melting point": 85},
      {"smiles": "CSc1cccc(-c2cccc(C(OC3CCN(C)CC3)c3nc4ccccc4[nH]3)c2)c1", "note": "(stereo not shown) (as salt: oxalate) [Example 116, 2-[(1-methylpiperidin-4-yloxy)(3′-methylsulfanylbiphenyl-3-yl)methyl]-1H-benzimidazole]", "melting point": 80},
      {"smiles": "Cc1ccc(F)c(C(OC2CCN(C)CC2)c2nc3ccccc3[nH]2)c1", "note": "(stereo not shown) (as salt: oxalate) [Example 490]", "melting point": 132},
      {"smiles": "CN1CCC(OC(c2ccc3cc[nH]c3c2)c2nc3ccccc3[nH]2)CC1", "note": "(stereo not shown) (as salt: oxalate) [Example 550, 2-[(1H-indol-6-yl)(1-methylpiperidin-4-yloxy)methyl]-1H-benzimidazole]", "melting point": 170},
      {"smiles": "COc1cccc(C(OC2CCN(C)CC2)c2nc3ccccc3s2)c1", "note": "(stereo not shown) (as salt: hydrochloride) [Example 11, 2-[(3-methoxyphenyl)(1-methylpiperidin-4-yloxy)methyl]benzothiazole]", "melting point": 182}
    ]}
  ]
}
